21 compounds from patent US20260085062A1, “NOVEL COMPOUNDS AS CK2 INHIBITORS” (Cambridge Enterprise Limited, priority 2022, published 2026) can be followed below.

The target of one test is T1, CK2α (Homo sapiens, UniProt P68400).
T1 construct: CK2α (residues 2-329) was produced in Escherichia coli BL21 (DE3) for kinase activity screening; His6 (N, cleaved yes); made in house; host or cells: Escherichia coli BL21 (DE3)
T1 sequence (P68400 2-329): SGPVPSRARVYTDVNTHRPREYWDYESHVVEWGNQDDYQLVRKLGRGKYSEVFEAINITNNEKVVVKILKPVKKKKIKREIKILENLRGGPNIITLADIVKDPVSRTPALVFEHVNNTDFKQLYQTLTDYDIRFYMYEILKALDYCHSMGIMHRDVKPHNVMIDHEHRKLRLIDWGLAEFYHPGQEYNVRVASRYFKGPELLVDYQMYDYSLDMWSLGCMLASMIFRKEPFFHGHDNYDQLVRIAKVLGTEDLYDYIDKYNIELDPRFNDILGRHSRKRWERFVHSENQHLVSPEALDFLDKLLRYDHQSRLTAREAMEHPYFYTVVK
Nature of the test: Biochemical assay for inhibitors of CK2α kinase activity (ADP-Glo). The note with it: 0.2 nM CK2α, 50 μM peptide substrate, 15 μM ATP, read-out: Assay 1: CK2α Enzyme IC50. On the technique in general: In ADP-Glo the light output rises with the ADP produced.

Another test concerns the target T2, CLK2 (Homo sapiens, UniProt P49760).
T2 construct: purchased Carna Biosciences 04-127
Nature of the test: Biochemical assay for inhibitors of CLK2 kinase activity (ADP-Glo). Particulars: 20 nM CLK2, 50 μM peptide substrate, 100 μM ATP, read-out: Assay 2: CLK2 Enzyme IC50.

The target of another test is T3, intracellular CK2α (Homo sapiens, UniProt P19784).
T3 construct: host or cells: HCT116 (ATCC CCL-247)
Nature of the test: Cell-based NanoBRET assay for inhibitor binding to intracellular CK2α. Particulars: HCT116 cells transiently transfected with CSNK2A2-NanoLuc fusion vector; Tracer K-5; 2 h; read-out: Assay 3: NanoBRET ™ assay for binding to intracellular CK2α. Summed up:
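Living cells expressing NanoLuc-CK2α fusion were given a fixed tracer concentration, and compounds competitively displaced the reversibly bound tracer. Donor (450 nm) and acceptor (610 or 630 nm) emissions were read; BRET ratio = (acceptor/donor)×1,000, giving apparent intracellular affinity.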

pIC50: −log10 of the molar value.

T2 sequence (P49760 whole entry): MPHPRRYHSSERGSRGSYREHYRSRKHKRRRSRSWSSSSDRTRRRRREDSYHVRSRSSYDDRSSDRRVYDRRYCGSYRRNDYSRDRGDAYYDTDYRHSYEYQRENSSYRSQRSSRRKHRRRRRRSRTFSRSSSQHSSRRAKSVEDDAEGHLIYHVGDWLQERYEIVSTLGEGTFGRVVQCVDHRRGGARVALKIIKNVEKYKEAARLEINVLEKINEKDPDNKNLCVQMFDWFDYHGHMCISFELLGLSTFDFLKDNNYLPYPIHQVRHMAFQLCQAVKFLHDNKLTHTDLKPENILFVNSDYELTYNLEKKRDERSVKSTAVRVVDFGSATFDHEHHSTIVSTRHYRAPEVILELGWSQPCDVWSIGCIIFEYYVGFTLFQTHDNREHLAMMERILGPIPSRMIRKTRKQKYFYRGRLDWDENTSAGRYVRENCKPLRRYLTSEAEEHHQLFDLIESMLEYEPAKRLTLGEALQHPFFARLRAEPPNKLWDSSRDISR
T3 sequence (P19784 whole entry): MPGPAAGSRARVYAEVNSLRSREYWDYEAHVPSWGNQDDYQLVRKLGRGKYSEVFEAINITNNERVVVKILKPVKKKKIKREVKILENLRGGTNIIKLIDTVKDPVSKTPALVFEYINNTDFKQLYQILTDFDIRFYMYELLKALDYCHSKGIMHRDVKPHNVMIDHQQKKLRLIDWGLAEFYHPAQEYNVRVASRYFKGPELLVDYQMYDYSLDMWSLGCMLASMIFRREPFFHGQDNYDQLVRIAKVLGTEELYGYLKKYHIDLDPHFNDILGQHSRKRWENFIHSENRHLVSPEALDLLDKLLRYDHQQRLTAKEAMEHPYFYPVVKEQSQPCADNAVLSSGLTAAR

Turning to `Cc1nncn1-c1cc(NCCCNC(=O)CCNCc2ccc(-c3ccccc3)c(Cl)c2)c2cn[nH]c2c1` [Example 71, 3-(((2-chloro-[1,1′-biphenyl]-4-yl)methyl)amino)-N-(3-((6-(3-methyl-4H-1,2,4-triazol-4-yl)-1H-indazol-4-yl)amino)propyl)propanamide], the pIC50 on CK2α was 8.86; on CLK2 it was 6.38; at intracellular CK2α, 5.66.
As to `CN(CCCCNCc1ccc(OC(F)(F)F)c(Cl)c1)CCNc1cc(-n2cnnc2)cc2[nH]ncc12` [Example 72, N1-(2-((6-(4H-1,2,4-triazol-4-yl)-1H-indazol-4-yl)amino)ethyl)-N4-(3-chloro-4-(trifluoromethoxy)benzyl)-N1-methylbutane-1,4-diamine], the pIC50 on CK2α is 9.15; on CLK2 it was 6.37; on intracellular CK2α, 6.53.
Turning to `O=C(CCNCc1ccc(-c2ccccc2)c(Cl)c1)NCCCNc1cc(-c2cncnc2)cc2[nH]ncc12` [Example 73, 3-(((2-chloro-[1,1′-biphenyl]-4-yl)methyl)amino)-N-(3-((6-(pyrimidin-5-yl)-1H-indazol-4-yl)amino)propyl)propanamide], the pIC50 at CK2α was 7.35; on CLK2, 5.71; on intracellular CK2α, 6.13.
For `N#Cc1cc(-c2cc(NCCCNC(=O)CCNCc3ccc(-c4ccccc4)c(Cl)c3)c3cn[nH]c3c2)ccn1` [Example 74, 3-(((2-chloro-[1,1′-biphenyl]-4-yl)methyl)amino)-N-(3-((6-(2-cyanopyridin-4-yl)-1H-indazol-4-yl)amino)propyl)propanamide], in that order: 7.71, 5.00 and 5.67.
For `O=C(CCNCc1ccc(-c2ccccc2)c(Cl)c1)NCCCNc1cc(-c2ccncn2)cc2[nH]ncc12` [Example 75, 3-(((2-chloro-[1,1′-biphenyl]-4-yl)methyl)amino)-N-(3-((6-(pyrimidin-4-yl)-1H-indazol-4-yl)amino)propyl)propanamide], in that order: 9.05, 6.39 and 7.12.
The like results for `COc1n[nH]cc1-c1cc(NCCCNC(=O)CCNCc2ccc(-c3ccccc3)c(Cl)c2)c2cn[nH]c2c1` [Example 76, 3-(((2-chloro-[1,1′-biphenyl]-4-yl)methyl)amino)-N-(3-((6-(3-methoxy-1H-pyrazol-4-yl)-1H-indazol-4-yl)amino)propyl)propanamide] were, in that order, 8.58, 7.73 and 6.13.
Turning to `O=C(CCNCc1ccc(C2CC2)c(CO)c1)NCCCNc1cc(-n2cnnc2)cc2[nH]ncc12` [Example 77, N-(3-((6-(4H-1,2,4-triazol-4-yl)-1H-indazol-4-yl)amino)propyl)-3-((4-cyclopropyl-3-(hydroxymethyl)benzyl)amino)propanamide], the pIC50 at CK2α was 8.24; at CLK2, 7.02; on intracellular CK2α, less than 4.30.
On to `O=C(CCNCc1ccc(-c2ccccc2)c(Cl)c1)NCCCNc1cc(N2CCOCC2)cc2[nH]ncc12` [Example 78, 3-(((2-chloro-[1,1′-biphenyl]-4-yl)methyl)amino)-N-(3-((6-morpholino-1H-indazol-4-yl)amino)propyl)propanamide], for which the results for the pIC50 on CK2α, at CLK2 and on intracellular CK2α were 6.33, less than 4.30 and less than 4.30, respectively.
`O=C(CCNCc1ccc(-c2ccccc2)c(Cl)c1)NCCCNc1cc(-c2nn[nH]n2)cc2[nH]ncc12` [Example 79, N-(3-((6-(2H-tetrazol-5-yl)-1H-indazol-4-yl)amino)propyl)-3-(((2-chloro-[1,1′-biphenyl]-4-yl)methyl)amino)propanamide]: the pIC50 on CK2α was 9.48; at CLK2, 6.39; at intracellular CK2α, 5.29.
For `Cc1nccn1-c1cc(NCCCNC(=O)CCNCc2ccc(-c3ccccc3)c(Cl)c2)c2cn[nH]c2c1` [Example 80, 3-(((2-chloro-[1,1′-biphenyl]-4-yl)methyl)amino)-N-(3-((6-(2-methyl-1H-imidazol-1-yl)-1H-indazol-4-yl)amino)propyl)propanamide], the pIC50 is 7.33 on CK2α, 5.72 at CLK2 and 5.09 at intracellular CK2α.
For `O=C(CCNCc1ccc(-c2ccccc2)c(Cl)c1)NCCCNc1cc(C2COC2)cc2[nH]ncc12` [Example 81, 3-(((2-chloro-[1,1′-biphenyl]-4-yl)methyl)amino)-N-(3-((6-(oxetan-3-yl)-1H-indazol-4-yl)amino)propyl)propanamide], in that order: 8.13, 6.16 and 6.09.
For the compound `O=C(CCNCc1ccc(-c2ccccc2)c(Cl)c1)NCCCNc1cc(C2CCOC2)cc2[nH]ncc12` (stereo not drawn) [Example 82, 3-(((2-chloro-[1,1′-biphenyl]-4-yl)methyl)amino)-N-(3-((6-(tetrahydrofuran-3-yl)-1H-indazol-4-yl)amino)propyl)propanamide], the pIC50 is 7.63 at CK2α, 5.73 at CLK2 and 5.67 on intracellular CK2α.
For the compound `O=C(CCNCc1ccc(OC(F)(F)F)c(Cl)c1)NCCCNc1cc(-n2cnnc2)cc2cn[nH]c12` [Example 83, N-(3-((5-(4H-1,2,4-triazol-4-yl)-1H-indazol-7-yl)amino)propyl)-3-((3-chloro-4-(trifluoromethoxy)benzyl)amino)propanamide], the pIC50 was 8.59 at CK2α, 5.96 on CLK2 and 5.65 at intracellular CK2α.
For `COC(=O)c1cc(NCCOCCCCNCc2cc3cc(C(F)(F)F)ccc3[nH]2)c2cn[nH]c2c1` [Example 84, methyl4-((2-(4-(((5-(trifluoromethyl)-1H-indol-2-yl)methyl)amino)butoxy)ethyl)amino)-1H-indazole-6-carboxylate], in that order: 6.40, 4.98 and 4.44.
For `O=C(O)c1cc(NCCOCCCCNCc2cc3cc(C(F)(F)F)ccc3[nH]2)c2cn[nH]c2c1` [Example 85, 4-((2-(4-(((5-(trifluoromethyl)-1H-indol-2-yl)methyl)amino)butoxy)ethyl)amino)-1H-indazole-6-carboxylic acid], in that order: 6.13, 4.43 and less than 4.30.
As to `Cc1nncn1-c1cc(NCCOCCCCNCc2cc3cc(C(F)(F)F)ccc3[nH]2)c2cn[nH]c2c1` [Example 86, 6-(3-methyl-4H-1,2,4-triazol-4-yl)-N-(2-(4-(((5-(trifluoromethyl)-1H-indol-2-yl)methyl)amino)butoxy)ethyl)-1H-indazol-4-amine], the pIC50 at CK2α is 8.20; at CLK2 it was 5.78; at intracellular CK2α it was 5.87.
The like results for `COc1cc(-c2cc(NCCOCCCCNCc3cc4cc(C(F)(F)F)ccc4[nH]3)c3cn[nH]c3c2)ccn1` [Example 87, 6-(2-methoxypyridin-4-yl)-N-(2-(4-(((5-(trifluoromethyl)-1H-indol-2-yl)methyl)amino)butoxy)ethyl)-1H-indazol-4-amine] were, in that order, 7.91, 5.75 and 5.89.
The like results for `COC(=O)CCc1cc(NCCOCCCCNCc2cc3cc(C(F)(F)F)ccc3[nH]2)c2cn[nH]c2c1` [Example 88, methyl 3-(4-((2-(4-(((5-(trifluoromethyl)-1H-indol-2-yl)methyl)amino)butoxy)ethyl)amino)-1H-indazol-6-yl)propanoate] were, in that order, less than 6.00, 4.38 and less than 4.30.
The like results for `O=C(O)CCc1cc(NCCOCCCCNCc2cc3cc(C(F)(F)F)ccc3[nH]2)c2cn[nH]c2c1` [Example 89, 3-(4-((2-(4-(((5-(trifluoromethyl)-1H-indol-2-yl)methyl)amino)butoxy)ethyl)amino)-1H-indazol-6-yl)propanoic acid] were, in that order, less than 6.00, 4.74 and less than 4.30.
As to `O=C(CCNCc1ccc(-c2ccccc2)c(Cl)c1)NCCCNc1cc(C2CCOCC2)cc2[nH]ncc12` [Example 90, 3-(((2-chloro-[1,1′-biphenyl]-4-yl)methyl)amino)-N-(3-((6-(tetrahydro-2H-pyran-4-yl)-1H-indazol-4-yl)amino)propyl)propanamide], the pIC50 at CK2α is 6.67; at CLK2, 5.06; on intracellular CK2α it was 4.98.
The like results for `Cc1nc[nH]c1-c1cc(NCCCNC(=O)CCNCc2ccc(-c3ccccc3)c(Cl)c2)c2cn[nH]c2c1` [Example 91, 3-(((2-chloro-[1,1′-biphenyl]-4-yl)methyl)amino)-N-(3-((6-(4-methyl-1H-imidazol-5-yl)-1H-indazol-4-yl)amino)propyl)propanamide] were, in that order, 8.38, 6.01 and 5.34.
